This passage reports IC50 results from US20140107113A1, “PHARMACEUTICAL COMPOSITION COMPRISING A TRPA1 ANTAGONIST AND A BETA-2 AGONIST” (GLENMARK PHARMACEUTICALS SA, priority 2011, published 2014).

The target of the experiment is T1, human TRPA1 receptor (Homo sapiens, UniProt O75762).
T1 construct: expressed in transfected cells; host or cells: CHO cells
In words: Inhibition of AITC induced cellular uptake of radioactive calcium in human TRPA1 expressing CHO cells. The experiment is classed as cell-based. As to conditions: read-out: hTRPA1 IC50 values. The method, then: The human IC50 values were measured by the following method:
The inhibition of TRPA1 receptor activation is measured as inhibition of allylisothiocyanate (AITC) induced cellular uptake of radioactive calcium.
Test compound solution is prepared in a suitable solvent.
Human TRPA1 expressing CHO cells are grown in suitable medium. Cells are treated with test compounds followed by addition of AITC.
Cells are washed, lysed and the radioactivity in the lysate is measured in Packard Top count after addition of liquid scintillant.
The concentration response curves for compounds are plotted as a % of maximal response obtained in the absence of test antagonist, and the IC50 values are calculated from such concentration response curve by nonlinear regression analysis using GraphPad PRISM software.

T1 sequence (O75762 whole entry): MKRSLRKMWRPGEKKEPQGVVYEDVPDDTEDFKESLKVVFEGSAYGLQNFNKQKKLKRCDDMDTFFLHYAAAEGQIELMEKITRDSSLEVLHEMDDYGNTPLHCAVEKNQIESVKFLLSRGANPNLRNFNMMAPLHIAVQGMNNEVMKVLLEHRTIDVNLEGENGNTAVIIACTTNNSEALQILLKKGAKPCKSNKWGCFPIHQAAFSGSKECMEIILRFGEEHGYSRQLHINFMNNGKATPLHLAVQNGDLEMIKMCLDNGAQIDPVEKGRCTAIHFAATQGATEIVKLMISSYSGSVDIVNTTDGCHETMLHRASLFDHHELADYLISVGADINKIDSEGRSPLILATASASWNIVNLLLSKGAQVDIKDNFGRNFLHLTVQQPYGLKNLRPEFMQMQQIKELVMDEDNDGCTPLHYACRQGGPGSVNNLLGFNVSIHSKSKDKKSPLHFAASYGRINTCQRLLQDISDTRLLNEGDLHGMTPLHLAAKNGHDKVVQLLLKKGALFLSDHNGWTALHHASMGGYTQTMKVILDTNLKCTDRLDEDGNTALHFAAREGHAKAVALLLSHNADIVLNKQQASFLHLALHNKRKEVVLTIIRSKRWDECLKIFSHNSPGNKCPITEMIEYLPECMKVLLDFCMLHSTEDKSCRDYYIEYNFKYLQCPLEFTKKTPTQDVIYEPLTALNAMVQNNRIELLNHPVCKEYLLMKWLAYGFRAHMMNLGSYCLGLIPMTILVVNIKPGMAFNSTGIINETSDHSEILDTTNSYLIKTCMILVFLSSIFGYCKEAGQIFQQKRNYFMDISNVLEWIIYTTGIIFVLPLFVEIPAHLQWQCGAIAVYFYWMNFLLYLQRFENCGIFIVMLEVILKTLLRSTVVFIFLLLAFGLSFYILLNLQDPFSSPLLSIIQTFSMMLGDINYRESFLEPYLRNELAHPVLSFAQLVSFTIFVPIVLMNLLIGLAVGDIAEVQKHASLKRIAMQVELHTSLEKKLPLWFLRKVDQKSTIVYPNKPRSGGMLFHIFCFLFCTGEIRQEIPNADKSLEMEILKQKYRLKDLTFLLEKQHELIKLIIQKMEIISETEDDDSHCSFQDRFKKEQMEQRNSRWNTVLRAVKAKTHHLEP

In the case of `Cn1c(=O)c2c(CC(=O)Nc3ccn(-c4cccc(C(F)(F)F)c4)n3)cccc2n(C)c1=O` [Compound 16], the IC50 is 58.9 nM. Consider `CC(C)Cc1ccc(-c2csc(NC(=O)Cc3cccc4c3c(=O)n(C)c(=O)n4C)n2)cc1` [Compound 23], for which the IC50 is 43.9 nM. Take `Cn1c(=O)c2c(ccn2CC(=O)Nc2nc(-c3cc(Cl)c(OCCC(F)(F)F)c(Cl)c3)cs2)n(C)c1=O` [Compound 35]: the IC50 was found to be 18 nM.

`Cn1c(=O)c2c(ccn2CC(=O)Nc2nc(-c3cc(F)c(OCC(F)(F)F)c(F)c3)cs2)n(C)c1=O` [Compound 37]: the IC50 was determined as 12.3 nM. The result for `Cn1c(=O)c2c(cnn2CC(=O)Nc2nc(-c3cc(Cl)c(OCC(C)(C)C)c(Cl)c3)cs2)n(C)c1=O` [Compound 44] reads 8.36 nM. For the compound `Cn1c(=O)c2c(CC(=O)Nc3nc(-c4ccc(C(F)(F)F)c(F)c4)cs3)csc2n(C)c1=O` [Compound 51], the IC50 stood at 4.84 nM.

As for `Cn1c(=O)c2c(CC(=O)Nc3nc(-c4ccc(F)c(C(F)(F)F)c4F)cs3)csc2n(C)c1=O` [Compound 52], the IC50 was 2.49 nM. As to `Cn1c(=O)c2c(CC(=O)Nc3nc(-c4cc(F)c(OCC(F)(F)F)c(F)c4)cs3)coc2n(C)c1=O` [Compound 56], the IC50 amounted to 3.38 nM.

As for `Cc1oc2c(c1CC(=O)Nc1nc(-c3ccc(C(F)(F)F)c(F)c3)cs1)c(=O)n(C)c(=O)n2C` [Compound 65], the IC50 amounted to 6.65 nM. The value for `Cc1oc2c(c1CC(=O)Nc1nc(-c3ccc(OC(F)(F)F)c(Cl)c3)cs1)c(=O)n(C)c(=O)n2C` [Compound 73] was 8.54 nM; that for `Cn1c(=O)c2c(CC(=O)Nc3nc(-c4ccc(C(F)(F)F)c(F)c4F)cs3)nsc2n(C)c1=O` [Compound 84] was 5.35 nM; that for `Cn1c(=O)c2c(CC(=O)Nc3nc(-c4ccc(OC(F)(F)F)c(F)c4)cs3)nccc2n(C)c1=O` [Compound 88] was 11.4 nM.

As for `COCCCOc1cccc(C2NC(=S)NC3=C2C(=O)c2ccccc23)c1` (centres unmarked) [Compound 90], the half-inhibitory concentration (IC50) was 5.61 nM.

For `Cn1c(=O)c2c(ncn2CC(=O)Nc2nc(-c3ccc(Br)cc3)cs2)n(C)c1=O` [Compound 91], the IC50 worked out at 451 nM.

Take `Cn1c(=O)c2c(CC(=O)Nc3nc(-c4ccc(F)c(C(F)(F)F)c4F)cs3)onc2n(C)c1=O` [Compound 92]: the IC50 was 17.1 nM. On to `Cc1oc2c(c1CC(=O)/N=c1\scc(-c3ccc(OC(F)(F)F)c(Cl)c3)n1COC(=O)[C@@H](N)C(C)C)c(=O)n(C)c(=O)n2C` [Compound 95], for which the IC50 worked out at 88.5 nM. For the compound `Cc1oc2c(c1CC(=O)N=c1scc(-c3ccc(OC(F)(F)F)c(Cl)c3)n1COC(=O)CN)c(=O)n(C)c(=O)n2C` [Compound 98], the IC50 turned out to be 54.3 nM.

In general, IC50 refers to the concentration that inhibits the measured activity by half.
